Compound	melting point [°C]
COC(=O)[C@@H](OS(=O)(=O)c1ccc(C)cc1)[C@H](O)C1CC1	75 to 78
Cc1ccnc(C(O)c2cc(F)ccc2F)c1 (configuration not stated)	105 to 106
CC1(C)CCC(C)(C)c2cc(C(C(N)=O)C(=O)Nc3ccc(C(=O)O)cc3)ccc21 (configuration not stated)	112 to 113
COc1ccc(S(=O)(=O)N2C(=O)C(N)(c3ccccc3Cl)c3cc(Cl)ccc32)c([N+](=O)[O-])c1 (configuration not stated)	192 to 195
O=C(CCl)Nc1ccc2c(c1)C(=O)c1cc(NC(=O)CCl)ccc1C2=O	286
COc1cccc(NC(=O)NC2N=C(c3ccccc3)c3ccccc3N(CCN(C)C)C2=O)c1 (configuration not stated)	213 to 215
C=Cc1cc(C(C)NC(=O)OC(C)(C)C)ccc1NS(=O)(=O)C=C (configuration not stated)	80 to 82
COc1cc2c(cc1O)CCN(C(=O)c1ccc(C#N)cc1)C2=O	198 to 199
Cc1cnc2c(NC(=O)c3c(Cl)cccc3Cl)ccc(C)c2c1N1CCN(C)C1=O	> 300
COC(C)=CC(=O)NC1CCC(C)CC1 (configuration not stated)	125
CC(O)CC(=O)NCCN (configuration not stated)	71 to 73
CN(CC[C@H]1CC[C@H](C(=O)O)CC1)C(=O)OC(C)(C)C	212 to 214
Oc1cc(Cl)nc(Cl)c1	201 to 202
Cn1c(C(F)(F)F)cc(=O)n(-c2cc(OCC(C)(C)C)c(Cl)cc2F)c1=O	122 to 124
Nc1cc2c3c(cccc3c1Cl)C(=O)N(O)C2=O	271 to 275
Nc1cc(C=O)ncc1F	133 to 135
CCn1c(=O)c2[nH]c(/C=C/c3ccc(OC)c(OC)c3OC)nc2n(CC)c1=O	276 to 277
CCOC(=O)c1nc(NC)sc1-c1cn2ccc(C)cc2n1	210 to 213
CCS(=O)(=O)c1cc(C(=O)NCC(Cl)CCCCl)c(OC)cc1N (configuration not stated)	109
Nc1ncc(-c2ccc(=O)[nH]n2)c(-c2cccs2)n1	265
CCCCn1cc(S(C)=O)c(=O)c2ccccc21 (configuration not stated)	103 to 105
Cc1ccc(C2=CCC(=O)CC2)cc1	72 to 74
CC(C)Cc1cc(S(=O)(=O)Cl)c(C(C)C)cc1Cl	90 to 94
O=C(O)c1cccc(OCC(=O)C23CC4CC(CC(C4)C2)C3)c1	156

Compound	melting point [°C]
COc1ccc(C(=O)Nc2ccc(C3(CNC(=O)c4cscn4)CCCC3)cc2)cc1OC	101 to 104
CC1Nc2ccc(-c3csc(C#N)c3)cc2C(C)(C)O1 (configuration not stated)	175 to 176
O=c1[nH]c2cc3ccc(C(F)(F)F)cc3nc2[nH]1	> 250
O=S1(=O)CNc2cccc3cccc1c23	206 to 207
COc1cc2c(cc1OC)C(C)(CC(=O)O)OCC2 (configuration not stated)	89 to 92
CCOC(=O)COc1cc(O)c(C(=O)CN2Cc3cc(C(N)=S)ccc3C2=O)cc1OCC(=O)OCC	142 to 143
CCCc1c[nH]c([C@@H]2Cc3ccccc3N2C(C)=O)n1	174 to 175
CCCCCCCCCCCCCCCCOC[C@@H]1OCCC[C@H]1OP(=O)([O-])OCC[N+](C)(C)C (relative stereo)	220 to 224
CCN1CCC=C(c2csc(N)n2)C1	116 to 120
CCOC(=O)c1cnc2nc(N3CCN(C)CC3)ncc2c1Cl	173 to 175
COc1cc(C(C)C)c(Oc2cnc(N)nc2N)cc1N1CCN(S(C)(=O)=O)CC1	115 to 117
Nc1nc(Cl)cc(CCl)n1	126 to 128
CCN(CC)CCNC(=O)c1cc(Cl)c(N)cc1OCC(=O)c1ccccc1	153 to 154
Cc1c(Sc2cc(Cl)c(Cl)cc2Cl)cc(C(C)(C)C)c(O)c1C(=O)Nc1ccc([N+](=O)[O-])cc1C(F)(F)F	179 to 180
CC(C)(S)CNC(=O)/C(CCO)=C(\c1ccc(Cl)cc1)c1ccc(S(C)(=O)=O)cc1	62 to 64
O=C1C(CCO)Oc2cc(F)ccc2N1Cc1cccc(Cl)c1 (configuration not stated)	79 to 82
CC1(C)CC(=O)C=C(Nc2ccccc2Cl)C1	150 to 152
Cc1ccc(OCC(O)CCCl)cc1 (configuration not stated)	62 to 64
CC(C)(C)NS(=O)(=O)c1c(C(F)F)nsc1OCC(F)(F)F	105 to 106
Cc1cccc(COCCCC(=O)O)c1	53 to 54
CC(C)N(C=Nc1ncc(Oc2ccc(Cl)cc2)c(Cl)n1)C(C)C	135 to 136
CC(=O)NCc1cccc(Nc2nccc(-c3sc(C)nc3C)n2)c1	206 to 207
CN(C)C=CC(=O)C1CC1	55
CCCCCCCCCCOc1cnc(-c2ccc(C#CCCCC(C)OC(C)=O)cc2)nc1 (configuration not stated)	57 to 58

Compound	melting point [°C]
CC(=O)OC1CCC2(C)C(=CCC3C2CCC2(C)C(C(C)C(O)CCC(C)(C)C)CCC32)C1 (configuration not stated)	185 to 187
CCC(C(=O)OC)[C@@H](C)O (some centres not stated)	72.4 to 73.3
CN1CCc2c(c3ccccc3n2CCc2n[nH]c(=S)n2C)C1	216 to 219
Cc1ccnc(-c2cc(CO)ccn2)c1	110 to 112
C=CCOC(=O)c1c(C)nc2c(cnn2CCC(=C)C)c1N	68 to 69
O=C(O)c1ccccc1CNC1CCOC1=O (configuration not stated)	112 to 114
CC(C)(C)C(=O)Nc1ccc(Cl)cc1C(=O)C[C@H]1C(=O)OCN1C(=O)OCc1ccccc1	113 to 116
CNC(=O)N1N=C(c2ccc(N)cc2)c2cc(OC)ccc2CC1C (configuration not stated)	190 to 191
CCc1ncnc(N[C@H]2CC[C@@H](C=O)CC2)c1Cl	96 to 97
O=C(O)c1cc(SCC(=O)c2ccccc2)cc(C(F)(F)F)c1	135 to 150
COC(=O)CC(NC1CC1)=C(C(=O)OC)C(=O)C(F)(F)F	51.5 to 52.5
CC(=O)OCC1(C)OCC2(CO1)COC(C)(COC(C)=O)OC2 (configuration not stated)	66 to 67
COC(=O)c1ccccc1NS(=O)(=O)NC(C)C	106 to 108
Cc1noc(C2CCCCC2=O)n1 (configuration not stated)	74 to 76
CCCN(CCC)c1nc2c(N3CCCCCC3)nc(N3CCOCC3)cc2c(=O)[nH]1	250
CC(C)C(Cl)C(=O)Nc1c(C(=O)CC(=O)Nc2nccs2)cccc1C(F)(F)F (configuration not stated)	186
Cc1cc(OC(F)F)ccc1NC(=O)c1cccc([N+](=O)[O-])c1C(=O)NC(C)C	148 to 149
CCCCCCCCCCCCS(=O)(=O)C(C#N)=C1C=C(N2CCCC2)CC(C)(C)C1	114 to 115
NCc1cn(CCC(=O)O)c(=S)n1[C@H]1CCc2c(F)cc(F)cc2C1	191
CCCCCCCCCOc1ccc2c(c1)C(CCNC(=O)CCC)CC2 (configuration not stated)	53 to 55
C=Cc1cc(C(C)NC(=O)C#Cc2ccc(C(C)(C)C)cc2)cc(F)c1NS(C)(=O)=O (configuration not stated)	108 to 110
Cc1nn(C)c(C)c1S(=O)(=O)n1c(CCCC(=O)O)cc2cc(Cl)ccc21	142 to 145
C=CCOc1cccc2oc(C(=O)OCC)c(C)c12	64 to 65

Other lines, results leading:

melting point [°C]	Compound
220 to 222	O=[N+]([O-])c1ccc(-c2ccc(S(=O)c3ccc(Cl)c([N+](=O)[O-])c3)cc2)cc1 (configuration not stated)
120 to 122	CCOC(=O)c1[nH]cc(Cc2cccc(F)c2C)c1-c1ccccc1
88 to 90	COc1cccc(-c2cc(-c3ccc(-c4c(Cc5ccccc5)sc5ccccc45)cc3)cc(Br)c2OCC(=O)O)c1
125 to 127	CC(=O)c1ccc2c(c1)C(=C1CCN(C)CC1)c1ccccc1S2
149 to 150	COc1ccc(Br)cc1-c1cc(-c2cccc(Br)c2)on1
244	Cc1ccc(-c2ccc3c(c2)C=C(C(=O)O)CS3)cc1
102 to 110	COc1c2ccccc2c(-c2cc(Br)c(O[C@H](Cc3ccccc3)C(=O)O)c(Br)c2)c2c1sc1ccccc12
291 to 295	CNc1ncc2c(-c3cccc(Cl)c3)cc(/C=C/C(=O)O)c(OC)c2n1
183 to 184	CN(C(=O)C(C#N)C(=O)c1nn(-c2ccccc2)c2c1COc1ccccc1-2)c1ccccc1 (configuration not stated)
159 to 160	COc1ccc(-c2ccc3c(c2)CCc2nn(-c4ccccn4)c(O)c2-3)cc1
76	CC(=O)SCC(=Cc1ccc(-c2ccccc2)cc1)C(=O)NCCC(=O)OCc1ccccc1
138 to 140	O=S(=O)(CCCCl)Nc1cccc(Oc2cccc3cccnc23)c1
279 to 281	CC(C)n1cc(-c2ccc(C(O)c3ccccc3)cc2)c2c(N)ncnc21 (configuration not stated)
90.1	c1ccc(COc2ccccc2OCCNCCCNc2ncccn2)cc1
149 to 151	Cc1cccc2c1nc(COc1ccc(Cl)cc1)n2CCC(C)C(=O)O (configuration not stated)
269 to 270	Cc1cc(C#N)ccc1-c1ccc(-c2nc3cc(C#N)ccc3[nH]2)cc1

melting point [°C]	Compound
101 to 103	COc1ncccc1-c1cccn2nc(Nc3ccc(C4CCN(C(=O)OC(C)(C)C)CC4)cc3)nc12
210 to 211	CN1C(=O)c2ccccc2Nc2ccccc21
166	c1ccc(-n2c3ccccc3c3c2ccc2c4ccccc4n(-c4ccccc4)c23)cc1
150	N#Cc1ccc(Oc2nc(Nc3cccc(C(=O)O)c3)nc(Oc3ccccc3)n2)cc1
138	O=Cc1ccc(OCCN2C(=O)c3ccccc3C2=O)cc1
77	Cc1cc(C)cc(-c2cnn3c(-c4cccc(-c5nnn(Cc6ccccn6)n5)c4)ccnc23)c1
213 to 215	Cc1ccc(-c2cc3ccccc3[nH]2)cc1
152	CC(=NNC(=O)c1ccccc1)c1ccccn1
132	Cn1cc(-c2cc(-c3cnc4ccccc4c3)ccn2)n(-c2ccc(C(C)(C)CN)cc2)c1=O
193 to 194	COCc1c(C(=O)c2ccccc2)ncc2[nH]c3ccc(Oc4ccc(Br)cn4)cc3c12
266 to 268	Cc1ccc2cccc(OCc3c(C)ccc(NC(=O)CN4C(=O)c5ccccc5C4=O)c3C)c2n1
134	CC(C)(C)OC(=O)NN=C(c1ccccc1)c1ccncc1
195 to 197	Cc1nccn1-c1nc(-c2ccc(Cl)cc2)c(CCC(=O)O)o1
184 to 185	COc1cccnc1C(c1cc(F)ccc1F)S(=O)(=O)c1ccc(Cl)cc1 (configuration not stated)
233	FC(F)(F)c1ccc(-c2cc(Nc3ccc4ccc(Cl)nc4c3)ncn2)cc1

Source: a melting point compilation (Tetko et al.; mined from patent text by program, amines drawn as free bases though some values may be those of a salt)
